Activity calls are given as the source filed them. No cut-off for these calls is given here.
How the values were obtained:
[1] = molecular target: T1, Protein cereblon/Serine/threonine-protein kinase ATR (Homo sapiens, UniProt Q13535+Q96SW2); assay: PROTAC activity at CRBN/ATR in human LoVo cells assessed as induction of ATR degradation by measuring maximal efficacy after 72 hrs by Western blot analysis relative to control; assay type: cell-based
[2] = molecular target: DNA-dependent protein kinase catalytic subunit (Homo sapiens) (UniProt P78527); assay: Induction of DNA-PK degradation in human LoVo cells at 0.16 to 10 uM incubated for 72 hrs by Western blot analysis; assay type: cell-based; details: dose 0.16-10 µM
[3] = molecular target: T1, Protein cereblon/Serine/threonine-protein kinase ATR; assay: PROTAC activity at CRBN/ATR in human LoVo cells assessed as induction of ATR degradation at 2.5 uM incubated for 4 hrs by Western blot analysis; assay type: cell-based
[4] = molecular target: T1, Protein cereblon/Serine/threonine-protein kinase ATR; assay: PROTAC activity at CRBN/ATR in human LoVo cells assessed as induction of ATR degradation at 2.5 uM preincubated with AZD6738 for 4 hrs followed by compound addition and measured after 48 hrs by Western blot analysis; assay type: cell-based
[5] = molecular target: T1, Protein cereblon/Serine/threonine-protein kinase ATR; assay: PROTAC activity at CRBN/ATR in human LoVo cells assessed as induction of ATR degradation at 2.5 uM preincubated with pomalidomide for 4 hrs followed by compound addition and measured after 48 hrs by Western blot analysis; assay type: cell-based
[6] = molecular target: T1, Protein cereblon/Serine/threonine-protein kinase ATR; assay: PROTAC activity at CRBN/ATR in human LoVo cells assessed as induction of ATR degradation at 2.5 uM preincubated with MLN4924 for 4 hrs followed by compound addition and measured after 48 hrs by Western blot analysis; assay type: cell-based
[7] = molecular target: T1, Protein cereblon/Serine/threonine-protein kinase ATR; assay: PROTAC activity at CRBN/ATR in human LoVo cells assessed as induction of ATR degradation at 2.5 uM preincubated for 36 hrs followed by compound washout and measured after 12 to 48 hrs by Western blot analysis; assay type: cell-based
[8] = molecular target: T2, Serine/threonine-protein kinase Chk1 (Homo sapiens) (UniProt O14757); assay: Inhibition of CHK1 phosphorylation at Ser345 residue in human LoVo cells incubated for 72 hrs by Western blot analysis; assay type: cell-based; details: dose 0.16-10 µM
T2 sequence (whole entry): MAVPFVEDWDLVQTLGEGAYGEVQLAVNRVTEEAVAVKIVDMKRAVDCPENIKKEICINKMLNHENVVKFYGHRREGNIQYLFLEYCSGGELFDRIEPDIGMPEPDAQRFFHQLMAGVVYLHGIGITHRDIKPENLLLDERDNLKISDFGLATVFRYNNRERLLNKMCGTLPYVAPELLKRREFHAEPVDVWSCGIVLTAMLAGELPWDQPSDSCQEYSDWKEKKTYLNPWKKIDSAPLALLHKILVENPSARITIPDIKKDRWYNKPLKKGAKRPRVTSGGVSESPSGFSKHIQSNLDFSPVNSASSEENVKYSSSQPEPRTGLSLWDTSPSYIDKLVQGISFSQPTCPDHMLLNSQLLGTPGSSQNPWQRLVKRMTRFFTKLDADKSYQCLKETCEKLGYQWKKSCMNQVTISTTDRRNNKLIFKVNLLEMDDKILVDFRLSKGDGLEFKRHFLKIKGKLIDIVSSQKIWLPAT

[9] = molecular target: T2, Serine/threonine-protein kinase Chk1 (Homo sapiens); assay: Induction of CHK1 degradation in human LoVo cells at 0.16 to 10 uM incubated for 72 hrs by Western blot analysis; assay type: cell-based; details: dose 0.16-10 µM
[10] = tested on: LoVo; assay: Induction of apoptosis in human LoVo cells assessed as apoptotic rate at 1 uM incubated for 48 hrs by Annexin V-FITC/PI staining based flow cytometric analysis (reference value: 5.32 %); assay type: functional
[11] = tested on: LoVo; assay: Cell cycle arrest in human LoVo cells assessed as accumulation of cells at S phase at 1 uM incubated for 72 hrs by PI staining based flow cytometric analysis (reference value: 25.5 %); assay type: functional
[12] = tested on: LoVo; assay: Cell cycle arrest in human LoVo cells assessed as accumulation of cells at G2/M phase at 1 uM incubated for 72 hrs by PI staining based flow cytometric analysis (reference value: 22.2 %); assay type: functional
[13] = tested on: LoVo; assay: Cell cycle arrest in human LoVo cells assessed as accumulation of cells at G0/G1 phase at 0.5 uM incubated for 72 hrs by PI staining based flow cytometric analysis (reference value: 52.3 %); assay type: functional
[14] = tested on: LoVo; assay: Cell cycle arrest in human LoVo cells assessed as accumulation of cells at S phase at 0.5 uM incubated for 72 hrs by PI staining based flow cytometric analysis (reference value: 25.5 %); assay type: functional
[15] = tested on: LoVo; assay: Cell cycle arrest in human LoVo cells assessed as accumulation of cells at G2/M phase at 0.5 uM incubated for 72 hrs by PI staining based flow cytometric analysis (reference value: 22.2 %); assay type: functional
[16] = Half-life in BALB/c nude mouse xenografted with human LoVo cells at 25 mg/kg, ip administered as single dose and measured after 12 hrs by LC-MS/MS analysis; assay type: ADME, organism-based; details: in vivo
[17] = Tmax in BALB/c nude mouse xenografted with human LoVo cells at 25 mg/kg, ip administered as single dose and measured after 12 hrs by LC-MS/MS analysis; assay type: ADME, organism-based; details: in vivo
[18] = Cmax in BALB/c nude mouse xenografted with human LoVo cells at 25 mg/kg, ip administered as single dose and measured after 12 hrs by LC-MS/MS analysis; assay type: ADME, organism-based; details: in vivo
[19] = AUC (0 to infinity) in BALB/c nude mouse xenografted with human LoVo cells at 25 mg/kg, ip administered as single dose and measured after 12 hrs by LC-MS/MS analysis; assay type: ADME, organism-based; details: in vivo
[20] = MRT (0 to t) in BALB/c nude mouse xenografted with human LoVo cells at 25 mg/kg, ip administered as single dose and measured after 12 hrs by LC-MS/MS analysis; assay type: ADME, organism-based; details: in vivo
[21] = Free drug concentration in tumor of BALB/c nude mouse xenografted with human LoVo cells at 25 mg/kg, ip administered as single dose and measured after 12 hrs by LC-MS/MS analysis; assay type: ADME, organism-based; details: in vivo
[22] = tested on: LoVo; assay: Antitumor activity against human LoVo cells xenografted in BALB/c nude mouse assessed as tumor growth inhibition at 12.5 mg/kg, ip administered […] for 15 days relative to control; assay type: functional; details: 360 h, time 15 day, read-out: TGI
[23] = tested on: LoVo; assay: Antitumor activity against human LoVo cells xenografted in BALB/c nude mouse assessed as tumor growth inhibition at 25 mg/kg, ip administered […] for 15 days relative to control; assay type: functional; details: 360 h, time 15 day, read-out: TGI
[24] = Toxicity in BALB/c nude mouse xenografted with human LoVo cells assessed as effect on liver at 12.5 to 25 mg/kg, ip administered twice daily for 15 days by H and E staining based analysis; assay type: organism-based; details: in vivo, 360 h, dose 12.5-25 mg/kg, time 15 day
[25] = molecular target: T1, Protein cereblon/Serine/threonine-protein kinase ATR; assay: In vivo PROTAC activity at CRBN/ATR in BALB/c nude mouse xenografted with human LoVo cells assessed as reduction in ATR protein level administered intraperitoneally once daily for 15 days by Western blot analysis; assay type: functional, organism-based; details: dose 12.5-25 mg/kg, route ip, time 15.0 day
[26] = tested on: Mus musculus; assay: Effect on CHK1 protein expression in BALB/c nude mouse xenografted with human LoVo cells at 12.5 to 25 mg/kg, ip administered once daily for 15 days by Western blot analysis; assay type: functional, organism-based; details: dose 12.5-25 mg/kg, time 15.0 day

T1 sequence (Q13535 whole entry, looked up): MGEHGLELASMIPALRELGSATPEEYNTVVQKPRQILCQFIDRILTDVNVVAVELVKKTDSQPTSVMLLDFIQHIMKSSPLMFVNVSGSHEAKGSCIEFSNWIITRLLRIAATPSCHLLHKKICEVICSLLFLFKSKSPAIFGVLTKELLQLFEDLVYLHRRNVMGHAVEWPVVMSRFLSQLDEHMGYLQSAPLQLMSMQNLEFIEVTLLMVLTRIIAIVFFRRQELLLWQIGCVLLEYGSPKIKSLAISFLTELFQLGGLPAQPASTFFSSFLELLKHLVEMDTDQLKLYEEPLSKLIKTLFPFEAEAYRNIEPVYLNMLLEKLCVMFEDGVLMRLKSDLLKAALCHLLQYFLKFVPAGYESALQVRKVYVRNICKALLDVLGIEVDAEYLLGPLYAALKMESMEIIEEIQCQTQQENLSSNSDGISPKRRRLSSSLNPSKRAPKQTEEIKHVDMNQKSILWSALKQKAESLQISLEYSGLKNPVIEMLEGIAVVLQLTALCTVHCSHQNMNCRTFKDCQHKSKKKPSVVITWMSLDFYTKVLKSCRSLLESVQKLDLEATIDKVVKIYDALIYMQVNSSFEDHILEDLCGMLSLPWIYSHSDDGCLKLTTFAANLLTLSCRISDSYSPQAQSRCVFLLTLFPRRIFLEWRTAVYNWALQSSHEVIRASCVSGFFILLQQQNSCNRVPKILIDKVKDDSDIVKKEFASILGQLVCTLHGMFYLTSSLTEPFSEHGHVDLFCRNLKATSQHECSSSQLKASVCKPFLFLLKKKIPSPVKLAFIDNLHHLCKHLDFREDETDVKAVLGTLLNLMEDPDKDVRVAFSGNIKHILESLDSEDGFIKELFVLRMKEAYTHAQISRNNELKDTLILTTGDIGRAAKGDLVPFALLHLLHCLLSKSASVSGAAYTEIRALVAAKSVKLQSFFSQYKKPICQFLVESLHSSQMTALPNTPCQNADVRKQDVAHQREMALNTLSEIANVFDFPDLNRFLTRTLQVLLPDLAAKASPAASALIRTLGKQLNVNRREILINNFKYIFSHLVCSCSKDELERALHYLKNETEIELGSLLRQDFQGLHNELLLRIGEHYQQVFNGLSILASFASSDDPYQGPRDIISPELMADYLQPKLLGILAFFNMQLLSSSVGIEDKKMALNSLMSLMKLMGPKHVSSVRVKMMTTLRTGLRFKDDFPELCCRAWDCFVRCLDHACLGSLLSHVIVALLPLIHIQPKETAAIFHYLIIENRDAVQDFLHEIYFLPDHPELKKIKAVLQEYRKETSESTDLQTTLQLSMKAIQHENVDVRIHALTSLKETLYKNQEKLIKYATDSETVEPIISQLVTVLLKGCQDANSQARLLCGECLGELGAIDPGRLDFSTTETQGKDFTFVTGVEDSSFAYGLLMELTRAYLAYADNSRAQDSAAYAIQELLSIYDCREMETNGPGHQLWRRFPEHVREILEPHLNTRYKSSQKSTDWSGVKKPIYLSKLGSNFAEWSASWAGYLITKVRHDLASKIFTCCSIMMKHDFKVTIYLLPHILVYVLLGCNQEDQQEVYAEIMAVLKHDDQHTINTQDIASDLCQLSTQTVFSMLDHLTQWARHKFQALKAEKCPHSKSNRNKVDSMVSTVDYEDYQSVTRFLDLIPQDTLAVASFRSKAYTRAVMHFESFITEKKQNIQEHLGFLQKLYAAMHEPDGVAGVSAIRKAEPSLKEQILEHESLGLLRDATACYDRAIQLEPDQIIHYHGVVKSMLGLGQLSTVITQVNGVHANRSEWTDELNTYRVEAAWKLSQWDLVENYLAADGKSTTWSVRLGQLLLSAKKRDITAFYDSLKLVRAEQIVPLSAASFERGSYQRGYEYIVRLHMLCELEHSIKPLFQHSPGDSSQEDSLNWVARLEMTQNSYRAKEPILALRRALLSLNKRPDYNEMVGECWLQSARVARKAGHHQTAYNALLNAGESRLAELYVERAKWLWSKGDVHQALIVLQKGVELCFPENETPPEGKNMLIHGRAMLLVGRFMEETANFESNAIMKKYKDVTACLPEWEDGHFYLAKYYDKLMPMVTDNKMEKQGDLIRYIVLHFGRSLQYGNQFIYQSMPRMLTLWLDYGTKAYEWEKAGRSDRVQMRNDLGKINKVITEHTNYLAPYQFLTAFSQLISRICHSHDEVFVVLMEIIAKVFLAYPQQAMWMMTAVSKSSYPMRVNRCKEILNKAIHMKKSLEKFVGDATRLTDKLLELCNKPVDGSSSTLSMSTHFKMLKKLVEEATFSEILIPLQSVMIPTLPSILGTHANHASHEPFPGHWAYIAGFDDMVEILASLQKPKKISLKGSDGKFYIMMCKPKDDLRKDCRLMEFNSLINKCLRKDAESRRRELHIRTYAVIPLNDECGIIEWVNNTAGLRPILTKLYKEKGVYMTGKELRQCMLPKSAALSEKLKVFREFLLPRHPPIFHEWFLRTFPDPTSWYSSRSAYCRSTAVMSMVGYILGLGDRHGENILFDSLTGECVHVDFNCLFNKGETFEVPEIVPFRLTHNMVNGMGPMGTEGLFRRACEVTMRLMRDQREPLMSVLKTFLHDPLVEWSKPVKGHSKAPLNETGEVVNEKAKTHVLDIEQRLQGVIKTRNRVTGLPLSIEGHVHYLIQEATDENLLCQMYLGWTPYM
T1 sequence (Q96SW2 whole entry, looked up): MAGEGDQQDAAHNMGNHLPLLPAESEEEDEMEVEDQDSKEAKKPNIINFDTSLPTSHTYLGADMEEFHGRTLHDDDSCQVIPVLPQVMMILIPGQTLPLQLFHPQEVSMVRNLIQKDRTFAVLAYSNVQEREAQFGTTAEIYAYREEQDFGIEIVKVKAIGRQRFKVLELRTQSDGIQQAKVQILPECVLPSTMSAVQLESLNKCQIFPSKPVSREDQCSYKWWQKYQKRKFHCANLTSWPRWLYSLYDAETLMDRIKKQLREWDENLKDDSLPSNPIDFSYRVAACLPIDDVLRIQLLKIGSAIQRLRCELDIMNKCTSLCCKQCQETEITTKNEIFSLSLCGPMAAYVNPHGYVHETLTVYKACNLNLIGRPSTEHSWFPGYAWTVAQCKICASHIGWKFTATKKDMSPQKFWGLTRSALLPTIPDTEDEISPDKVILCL

Emax [1]: 84.3%
Activity [2]: inactive
Activity [3]: Active
Activity [4]: inactive
Activity [5]: inactive
Activity [6]: inactive
Activity [7]: Active
inhibition [8]: Dose-Dependent Effect
Activity [9]: inactive
half-life [16]: 285 min
Tmax [17]: 2 h
Cmax [18]: 1180 ng/mL
AUC(0-inf) [19]: 4070 ng·h/mL
MRT last at 12 h [20]: 4.21 h
Drug uptake(free) [21]: ~ 6 uM
Activity [25]: Dose-Dependent Effect
Structure (SMILES): C[C@@H]1COCCN1c1cc(C2([S@@](C)(=O)=NC(=O)CCc3cn(CCCCCCCC(=O)Nc4cccc5c4C(=O)N(C4CCC(=O)NC4=O)C5=O)nn3)CC2)nc(-c2ccnc3[nH]ccc23)n1 (stereo partly specified)
Activity [10]: 45.62%
Activity [11]: 19.3%
Activity [12]: 13.4%
Activity [13]: 57.9%
Activity [14]: 22.4%
Activity [15]: 19.7%
inhibition in vivo at 12.5 mg/kg [22]: 39.5%
inhibition in vivo at 25 mg/kg [23]: 51.8%
Activity [24]: Non-Toxic
Activity [26]: inactive

From ChEMBL document CHEMBL5576037, “Discovery of the first ataxia telangiectasia and Rad3-related (ATR) degraders for cancer treatment” (Eur J Med Chem, 2024)
